Measurements published in PMC3566764, “Thioester derivatives of the natural product psammaplin A as potent histone deacetylase inhibitors” (Beilstein Journal of Organic Chemistry, 2013).
pIC50: −log10 of the molar value.

Assays:
[1] = test system: A549 (human lung carcinoma); assay: Cytotoxicity against A549 cell line; assay type: cell-based; conditions: Homo sapiens; A549 cells
Experimental: (§1) Thioesters 7–9 were assayed against A549, MCF7 and WI38 cell lines, in addition to recombinant human rHDAC1 (class I) and recombinant human HDAC6 (rHDAC6, class II) as previously reported. Psammaplin A (3), prereduced psammaplin A thiol (4), and SAHA (1) were included as control compounds. IC50^6/1 is defined by the ratio IC50^HDAC6/IC50^HDAC1 and was used as an indicator of isoform selectivity in vitro.

[2] = test system: MCF7 (human breast carcinoma); assay: Cytotoxicity against MCF7 cell line; assay type: cell-based; conditions: MCF7 cells
Experimental: as §1

[3] = test system: WI38 (normal human lung fibroblast); assay: Cytotoxicity against WI38 cell line; assay type: cell-based; conditions: Homo sapiens, WI-38; WI38 cells
Experimental: as §1

rHDAC1 = target: T1, rHDAC1 (Homo sapiens, UniProt Q13547); assay: rHDAC1 inhibition, coupled Boc-Lys(Ac)-AMC/trypsin fluorescence assay; assay type: biochemical
T1 construct: purchased BPS Bioscience (US)
T1 sequence (Q13547 whole entry): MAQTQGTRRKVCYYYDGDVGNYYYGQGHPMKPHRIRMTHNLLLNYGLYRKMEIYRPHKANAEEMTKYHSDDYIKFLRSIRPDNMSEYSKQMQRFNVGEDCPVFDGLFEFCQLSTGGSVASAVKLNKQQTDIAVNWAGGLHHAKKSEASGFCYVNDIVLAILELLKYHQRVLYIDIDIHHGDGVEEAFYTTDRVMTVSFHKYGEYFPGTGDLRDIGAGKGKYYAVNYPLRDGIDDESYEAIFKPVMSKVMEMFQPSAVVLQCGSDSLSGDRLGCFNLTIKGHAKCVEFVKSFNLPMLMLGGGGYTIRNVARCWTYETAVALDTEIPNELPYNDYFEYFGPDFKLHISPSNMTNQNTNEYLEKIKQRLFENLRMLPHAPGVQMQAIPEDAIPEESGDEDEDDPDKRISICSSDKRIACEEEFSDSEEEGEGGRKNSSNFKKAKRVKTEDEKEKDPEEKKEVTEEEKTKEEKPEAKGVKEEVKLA
Experimental: (§2) HDAC assays were performed as previously reported. The recombinant human histone deacetylases rHDAC1 and rHDAC6 were obtained from BPS Bioscience (US).
(§3) All reactions were performed in black half area 96-well microplates (Greiner bio-one, Germany) according to the general procedure described by Wegener et al. with some minor modifications. […] The buffer components were purchased from Merck (Germany), Roth (Germany) and Sigma-Aldrich.
(§4) The enzyme reaction was initiated by the addition of Boc-Lys(Ac)-AMC substrate. The reaction mixture was incubated at 30 °C in the dark and stopped after 60 min by the addition of a mixture of 70 µM trypsin and 200 nM SAHA. The fluorescence of AMC served as an indirect measure of HDAC enzyme activity. The kinetics of AMC release was measured on a PolarStar fluorescence plate reader (BMG) with an excitation wavelength of 340 nm and an emission wavelength of 460 nm. Complete cleavage of deacetylated Boc-Lys-AMC by trypsin was achieved after about 10–15 min. The fluorescence intensity of the plateau was averaged over at least 5 min and normalized with respect to the percentage of enzyme activity. Finally, the normalized fluorescence intensities were plotted versus the concentration of test compounds and fitted to a four-parameter logistic model to calculate the IC50 values.

[4] = target: T2, recombinant human HDAC6 (rHDAC6) (Homo sapiens, UniProt Q9UBN7); assay: rHDAC6 inhibition, coupled Boc-Lys(Ac)-AMC/trypsin fluorescence assay; assay type: biochemical; conditions: purified recombinant human HDAC6
T2 construct: purchased BPS Bioscience (US)
T2 sequence (Q9UBN7 1-1215): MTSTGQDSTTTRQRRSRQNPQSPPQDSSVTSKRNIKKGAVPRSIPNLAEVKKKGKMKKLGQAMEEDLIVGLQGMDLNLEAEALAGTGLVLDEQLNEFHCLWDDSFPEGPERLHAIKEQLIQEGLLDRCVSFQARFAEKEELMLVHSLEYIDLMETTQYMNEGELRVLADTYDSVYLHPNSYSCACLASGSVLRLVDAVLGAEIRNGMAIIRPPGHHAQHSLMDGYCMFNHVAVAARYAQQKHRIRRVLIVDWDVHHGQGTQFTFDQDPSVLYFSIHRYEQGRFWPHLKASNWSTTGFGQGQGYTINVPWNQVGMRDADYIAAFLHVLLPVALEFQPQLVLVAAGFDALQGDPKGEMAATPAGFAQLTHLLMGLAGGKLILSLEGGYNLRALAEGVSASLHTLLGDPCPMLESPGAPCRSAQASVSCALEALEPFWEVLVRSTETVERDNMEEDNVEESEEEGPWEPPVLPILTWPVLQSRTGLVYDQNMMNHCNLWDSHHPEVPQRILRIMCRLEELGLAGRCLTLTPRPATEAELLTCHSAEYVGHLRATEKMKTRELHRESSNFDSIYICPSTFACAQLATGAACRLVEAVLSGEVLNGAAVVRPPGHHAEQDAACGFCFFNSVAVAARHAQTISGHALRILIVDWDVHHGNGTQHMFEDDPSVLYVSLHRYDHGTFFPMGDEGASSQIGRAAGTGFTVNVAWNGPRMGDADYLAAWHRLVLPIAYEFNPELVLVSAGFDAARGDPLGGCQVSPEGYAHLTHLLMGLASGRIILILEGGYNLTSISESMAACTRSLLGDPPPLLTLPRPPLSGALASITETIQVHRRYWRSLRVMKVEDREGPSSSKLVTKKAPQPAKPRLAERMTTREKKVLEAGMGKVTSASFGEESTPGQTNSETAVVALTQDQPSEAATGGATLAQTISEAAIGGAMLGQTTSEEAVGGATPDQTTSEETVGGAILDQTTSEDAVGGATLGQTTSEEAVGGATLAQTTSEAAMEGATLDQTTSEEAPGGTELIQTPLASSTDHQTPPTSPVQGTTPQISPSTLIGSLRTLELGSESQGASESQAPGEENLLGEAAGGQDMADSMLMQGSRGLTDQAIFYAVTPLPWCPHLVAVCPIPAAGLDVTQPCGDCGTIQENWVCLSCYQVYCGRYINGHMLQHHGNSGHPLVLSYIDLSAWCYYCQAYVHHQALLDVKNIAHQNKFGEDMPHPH
Experimental: as §2, §3, §4

[5] = Thioester hydrolysis in assay buffer, thiol detection with fluorescent coumarin probe 10; assay type: physicochemical; conditions: incubation with probe 10 in buffer FB-188, up to 100 minutes
Description: We therefore undertook preliminary studies to attempt to shed light on the reasons for the high potency of our thioesters in the enzymatic assays. We first envisaged that our assay buffer could potentially be responsible for thioester hydrolysis. We prepared and used synthetic probe 10 [30] (Scheme 3) in order to test this hypothesis. Coumarin-based probe 10 is known to react extremely fast with thiols through a Michael addition reaction. While the fluorescence of 10 is efficiently quenched by the intramolecular double bond, upon reaction with thiols, a highly fluorescent conjugate 11 is produced.
[formula] […] Bottom left: Fluorescence intensity at 465 nm (Y-axis, A.U.) as a function of the number of equivalents of 2-mercaptoethanol added (X-axis). Bottom right: Fluorescence intensity at 465 nm (Y-axis, A.U.) as a function of the incubation time (X-axis, minutes) of probe 10 with thioester 8.
Control experiments were performed using 2-mercaptoethanol as the thiol source. Fluorescence spectra of 10 (10^−6 M 10 in buffer FB-188 [31]) were recorded after incubation with 0, 0.2, 0.4, 0.6, 0.8, 1.0 and 1.5 equiv 2-mercaptoethanol (Scheme 3, bottom left). As expected, a linear relationship between fluorescence intensity and the concentration of thiol could be observed between 0 and 1.0 equiv, confirming the sensitivity and reliability of this system at low concentration. […]

- IC50^6/1 (ratio IC50 HDAC6/IC50 HDAC1) (rHDAC1; isoform selectivity in vitro): 4560
- pIC50 (rHDAC1; purified recombinant human HDAC1): 8.30
- times less potent than the corresponding free thiol analogue against rHDAC1 (rHDAC1; thioester vs free thiol): 2.5 times
- pIC50 [4]: 4.64
- thiol formation (thioester hydrolysis) in assay buffer [5]: no evidence of thiol formation
SMILES: COc1ccc(C/C(=N\O)C(=O)NCCSC(C)=O)cc1Br [Compound 8, (E)-(S)-2-(3-(3-Bromo-4-methoxyphenyl)-2-(hydroxyimino)propanamido)ethyl ethanethioate]
- pIC50 [1]: 5.08
- pIC50 [2]: 5.49
- pIC50 [3]: 5.28
